Experimental data as given in patent US20260295053A1, “COMPOUNDS FOR DEGRADATION AND INHIBITION OF KRAS (G12D) PROTEIN” (Shenzhen Ionova Life Science Co., Ltd., priority 2023, published 2026).

Columns and labels:
[1] = target: T1, KRAS (G12D) (Homo sapiens, UniProt P01116, G12D); assay: KRAS (G12D) cellular degradation assay in AsPC-1 cells; format: cell-based; conditions: 24 hours, antibody fluorescence (Odyssey CLX), DC50 half-maximal degradation concentration
T1 construct: in-cell western with KRAS G12D antibody after 24 h
T1 sequence (P01116 1-188 isoform P01116-2 G12D): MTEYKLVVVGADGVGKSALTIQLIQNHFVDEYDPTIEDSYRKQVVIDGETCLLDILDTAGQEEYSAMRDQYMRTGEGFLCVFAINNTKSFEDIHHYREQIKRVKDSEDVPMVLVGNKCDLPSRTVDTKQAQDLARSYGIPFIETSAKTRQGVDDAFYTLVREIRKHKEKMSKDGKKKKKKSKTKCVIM
In short: (§1)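 Degradation: 22,000 cells/well grown to ~90% confluency, 24 h compound, fixed/permeabilised, anti-KRAS G12D + β-actin antibodies, near-IR fluorescence, DC50. Proliferation: 3,500 cells/well overnight, 6 d compound, CellTiter Glo luminescence, IC50. Dosing […]–1.5 nM final, 1:3 steps.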

[2] = tested on: AsPC-1 cells; assay: AsPC-1 cell proliferation assay (CellTiter Glo); format: cell-based; conditions: 6 days
In short: as §1

SMILES | DC50 [1] [nM] | IC50 ([2]; Homo sapiens, ASPC1, 144 h) [nM] | IC50 [2] [nM]
CO[C@@H](C)COc1nc(N2C[C@@H]3C[C@H]2CN3)c2cc(C3CC3)c(-c3c(C)c(F)c(Cl)c4[nH]ncc34)c(OCc3ccc(-c4cn([C@H](C(=O)N5C[C@H](O)C[C@H]5C(=O)N[C@@H](CO)c5ccc(-c6scnc6C)cc5)C(C)C)nn4)cc3)c2n1 [Example 97, (2S,4R)-1-((2S)-2-(4-(4-(((4-((1S,4S)-2,5-diazabicyclo[2.2.1]heptan-2-yl)-7-(7-chloro-6-fluoro-5-methyl-1H-indazol-4-yl)-6-cyclopropyl-2-((S)-2-methoxypropoxy)quinazolin-8-yl)oxy)methyl)phenyl)-1H-1,2,3-triazol-1-yl)-3-methylbutanoyl)-4-hydroxy-N—((R)-2-hydroxy-1-(4-(4-methylthiazol-5-yl)phenyl)ethyl)pyrrolidine-2-carboxamide] | < 10 | < 10 | 
CO[C@@H](C)COc1nc(N2C[C@@H]3C[C@H]2CN3)c2cc(C3CC3)c(-c3c(C)c(F)cc4[nH]ncc34)c(OCc3ccc(-c4cn([C@H](C(=O)N5C[C@H](O)C[C@H]5C(=O)N[C@H](C#Cc5cccc6nn(C)cc56)CO)C(C)C)nn4)cc3)c2n1 [Example 116, (2S,4R)-1-((2S)-2-(4-(4-(((4-((1S,4S)-2,5-diazabicyclo[2.2.1]heptan-2-yl)-6-cyclopropyl-7-(6-fluoro-5-methyl-1H-indazol-4-yl)-2-((S)-2-methoxypropoxy)quinazolin-8-yl)oxy)methyl)phenyl)-1H-1,2,3-triazol-1-yl)-3-methylbutanoyl)-4-hydroxy-N—((R)-1-hydroxy-4-(2-methyl-2H-indazol-4-yl)but-3-yn-2-yl)pyrrolidine-2-carboxamide] | < 10 | < 10 | 
CCn1nccc1-c1ccc([C@H](CO)NC(=O)[C@@H]2C[C@@H](O)CN2C(=O)[C@H](C(C)C)n2cc(-c3ccc(COc4c(-c5c(C)c(F)cc6[nH]ncc56)c(C5CC5)cc5c(N(C)[C@H]6[C@@H]7CN[C@H]6C7)nc(OC[C@H](C)OC)nc45)cc3)nn2)cc1 [Example 197, (2S,4R)-1-((2S)-2-(4-(4-(((4-(((1S,4S,5S)-2-azabicyclo[2.1.1]hexan-5-yl)(methyl)amino)-6-cyclopropyl-7-(6-fluoro-5-methyl-1H-indazol-4-yl)-2-((S)-2-methoxypropoxy)quinazolin-8-yl)oxy)methyl)phenyl)-1H-1,2,3-triazol-1-yl)-3-methylbutanoyl)-N—((R)-1-(4-(1-ethyl-1H-pyrazol-5-yl)phenyl)-2-hydroxyethyl)-4-hydroxypyrrolidine-2-carboxamide] | < 10 | < 10 | 
CCn1nccc1-c1ccc([C@H](CO)NC(=O)[C@@H]2C[C@@H](O)CN2C(=O)[C@H](C(C)C)n2cc(-c3ccc(COc4c(-c5c(C)c(F)cc6[nH]ncc56)c(C5CC5)cc5c(N6C[C@@H]7C[C@H]6CN7)nc(OC6CC7(CCOC7)C6)nc45)cc3)nn2)cc1 (stereo partly drawn) [Example 101, (2S,4R)-1-((2S)-2-(4-(4-(((2-((6-oxaspiro[3.4]octan-2-yl)oxy)-4-((1S,4S)-2,5-diazabicyclo[2.2.1]heptan-2-yl)-6-cyclopropyl-7-(6-fluoro-5-methyl-1H-indazol-4-yl)quinazolin-8-yl)oxy)methyl)phenyl)-1H-1,2,3-triazol-1-yl)-3-methylbutanoyl)-N—((R)-1-(4-(1-ethyl-1H-pyrazol-5-yl)phenyl)-2-hydroxyethyl)-4-hydroxypyrrolidine-2-carboxamide] | < 10 | < 10 | 
CCn1nccc1-c1ccc([C@H](CO)NC(=O)[C@@H]2C[C@@H](O)CN2C(=O)[C@H](C(C)C)n2cc(-c3ccc(COc4c(-c5c(C)c(F)cc6[nH]ncc56)c(C5CC5)cc5c(N6C[C@@H]7C[C@H]6CN7)nc(OC[C@H](C)OC)nc45)cc3)nn2)c2c1CC2 [Example 152, (2S,4R)-1-((2S)-2-(4-(4-(((4-((1S,4S)-2,5-diazabicyclo[2.2.1]heptan-2-yl)-6-cyclopropyl-7-(6-fluoro-5-methyl-1H-indazol-4-yl)-2-((S)-2-methoxypropoxy)quinazolin-8-yl)oxy)methyl)phenyl)-1H-1,2,3-triazol-1-yl)-3-methylbutanoyl)-N—((R)-1-(5-(1-ethyl-1H-pyrazol-5-yl)bicyclo[4.2.0]octa-1(6),2,4-trien-2-yl)-2-hydroxyethyl)-4-hydroxypyrrolidine-2-carboxamide] | < 10 | < 10 | 
CO[C@@H](C)COc1nc(N2C[C@@H]3C[C@H]2CN3)c2cc(C3CC3)c(-c3c(C)c(F)cc4[nH]ncc34)c(OCc3ccc(-c4cn([C@H](C(=O)N5C[C@H](O)C[C@H]5C(=O)N[C@H](C#Cc5cccc6scnc56)CO)C(C)C)nn4)cc3)c2n1 [Example 80] | 10 to 100 | 10 to 100 | 
CCn1nccc1-c1ccc([C@H](CO)NC(=O)[C@@H]2C[C@@H](O)CN2C(=O)[C@H](C(C)C)n2cc(-c3ccc(COc4c(-c5c(C)c(F)cc6[nH]ncc56)c(C5CC5)cc5c(N6CCCNCC6)nc(OC[C@H](C)OC)nc45)cc3)nn2)cc1 [Example 107, (2S,4R)-1-((2S)-2-(4-(4-(((6-cyclopropyl-4-(1,4-diazepan-1-yl)-7-(6-fluoro-5-methyl-1H-indazol-4-yl)-2-((S)-2-methoxypropoxy)quinazolin-8-yl)oxy)methyl)phenyl)-1H-1,2,3-triazol-1-yl)-3-methylbutanoyl)-N—((R)-1-(4-(1-ethyl-1H-pyrazol-5-yl)phenyl)-2-hydroxyethyl)-4-hydroxypyrrolidine-2-carboxamide] | < 10 | < 10 | 
CCn1nccc1-c1ccc([C@H](CO)NC(=O)[C@@H]2C[C@@H](O)CN2C(=O)[C@H](C(C)C)n2cc(-c3ccc(COc4c(-c5c(C)c(F)cc6[nH]ncc56)c(C5CC5)cc5c(N6CCC=CCC6)nc(OC[C@H](C)OC)nc45)cc3)nn2)cc1 [Example 181, (2S,4R)-1-((2S)-2-(4-(4-(((6-cyclopropyl-7-(6-fluoro-5-methyl-1H-indazol-4-yl)-2-((S)-2-methoxypropoxy)-4-(2,3,6,7-tetrahydro-1H-azepin-1-yl)quinazolin-8-yl)oxy)methyl)phenyl)-1H-1,2,3-triazol-1-yl)-3-methylbutanoyl)-N—((R)-1-(4-(1-ethyl-1H-pyrazol-5-yl)phenyl)-2-hydroxyethyl)-4-hydroxypyrrolidine-2-carboxamide] | 10 to 100 |  | 10 to 100

Next, values leading:

DC50 [1] [nM] | IC50 ([2]; Homo sapiens, ASPC1, 144 h) [nM] | IC50 [2] [nM] | SMILES
< 10 | < 10 |  | CCn1nccc1-c1ccc([C@H](CO)NC(=O)[C@@H]2C[C@@H](O)CN2C(=O)[C@H](C(C)C)n2cc(-c3ccc(COc4c(-c5c(C)c(F)cc6[nH]ncc56)c(C5CC5)cc5c(N6C[C@@H]7C[C@H]6CN7)nc(OCC6(C(F)F)CC6)nc45)cc3)nn2)cc1 [Example 53, (2S,4R)-1-((2S)-2-(4-(4-(((4-((1S,4S)-2,5-diazabicyclo[2.2.1]heptan-2-yl)-6-cyclopropyl-2-((1-(difluoromethyl)cyclopropyl)methoxy)-7-(6-fluoro-5-methyl-1H-indazol-4-yl)quinazolin-8-yl)oxy)methyl)phenyl)-1H-1,2,3-triazol-1-yl)-3-methylbutanoyl)-N—((R)-1-(4-(1-ethyl-1H-pyrazol-5-yl)phenyl)-2-hydroxyethyl)-4-hydroxypyrrolidine-2-carboxamide]
< 10 | < 10 |  | CCn1nccc1-c1ccc([C@H](CO)NC(=O)[C@@H]2C[C@@H](O)CN2C(=O)[C@H](C(C)C)n2cc(-c3ccc(COc4c(-c5c(C)c(F)cc6[nH]ncc56)c(C5CCC5)cc5c(N6C[C@@H]7C[C@H]6CN7)nc(OC[C@H](C)OC)nc45)cc3)nn2)cc1 [Example 68, (2S,4R)-1-((2S)-2-(4-(4-(((4-((1S,4S)-2,5-diazabicyclo[2.2.1]heptan-2-yl)-6-cyclobutyl-7-(6-fluoro-5-methyl-1H-indazol-4-yl)-2-((S)-2-methoxypropoxy)quinazolin-8-yl)oxy)methyl)phenyl)-1H-1,2,3-triazol-1-yl)-3-methylbutanoyl)-N—((R)-1-(4-(1-ethyl-1H-pyrazol-5-yl)phenyl)-2-hydroxyethyl)-4-hydroxypyrrolidine-2-carboxamide]
< 10 | < 10 |  | CCn1nccc1-c1ccc([C@H](CC(=O)NC)NC(=O)[C@@H]2C[C@@H](O)CN2C(=O)[C@H](C(C)C)n2cc(-c3ccc(COc4c(-c5c(C)c(F)cc6[nH]ncc56)c(C5CC5)cc5c(N6C[C@@H]7C[C@H]6CN7)nc(OC[C@H](C)OC)nc45)cc3)nn2)cc1 [Example 55, (2S,4R)-1-((2S)-2-(4-(4-(((4-((1S,4S)-2,5-diazabicyclo[2.2.1]heptan-2-yl)-6-cyclopropyl-7-(6-fluoro-5-methyl-1H-indazol-4-yl)-2-((S)-2-methoxypropoxy)quinazolin-8-yl)oxy)methyl)phenyl)-1H-1,2,3-triazol-1-yl)-3-methylbutanoyl)-N—((S)-1-(4-(1-ethyl-1H-pyrazol-5-yl)phenyl)-3-(methylamino)-3-oxopropyl)-4-hydroxypyrrolidine-2-carboxamide]
10 to 100 | < 10 |  | CCn1nccc1-c1ccc([C@H](CO)NC(=O)[C@@H]2C[C@@H](O)CN2C(=O)[C@H](C(C)C)n2cc(-c3ccc(COc4c(-c5c(C)c(F)cc6[nH]ncc56)c(C5CC5(F)F)cc5c(N6C[C@@H]7C[C@H]6CN7)nc(OC[C@H](C)OC)nc45)cc3)nn2)cc1 (stereo partly drawn) [Example 52, (2S,4R)-1-((2S)-2-(4-(4-(((4-((1S,4S)-2,5-diazabicyclo[2.2.1]heptan-2-yl)-6-(2,2-difluorocyclopropyl)-7-(6-fluoro-5-methyl-1H-indazol-4-yl)-2-((S)-2-methoxypropoxy)quinazolin-8-yl)oxy)methyl)phenyl)-1H-1,2,3-triazol-1-yl)-3-methylbutanoyl)-N—((R)-1-(4-(1-ethyl-1H-pyrazol-5-yl)phenyl)-2-hydroxyethyl)-4-hydroxypyrrolidine-2-carboxamide]
